Here are results for 4 compounds from ChEMBL document CHEMBL1914362, “Highlights of marine invertebrate-derived biosynthetic products: their biomedical potential and possible production by microbial associants” (Bioorg Med Chem, 2011).

The IC50 is the concentration needed to halve the response being measured.

One experiment deals with HT-29. The experiment is described as follows: Cytotoxicity against human HT-29 cells. In kind it is functional, cell-based.
Another experiment deals with HCT-116. The experiment is described as follows: Cytotoxicity against human HCT116 cells. In kind it is functional, cell-based.
Experiment [1] in a line: Irreversible inhibition of 20S proteasome.

Turning to `C=CC(C)(C)c1[nH]cnc1/C=C1\NC(=O)[C@H](Cc2ccccc2)NC1=O`, 440 nM corresponded to half-maximal inhibition in the experiment on HT-29 (IC50).
`C[C@@]12OC(=O)[C@]1([C@@H](O)[C@@H]1C=CCCC1)NC(=O)[C@@H]2CCCl` [MARIZOMIB] came in with an IC50 in the experiment on HCT-116 of 35 nM.
For `CC(C)[C@H](O)[C@@]12NC(=O)[C@H](C)[C@@H]1OC2=O` [OMURALIDE], the IC50 in experiment [1] was found to be 49 nM.
`CC(C)(C)c1[nH]cnc1/C=c1\[nH]c(=O)/c(=C/c2ccccc2)[nH]c1=O` [PLINABULIN] yielded an IC50 with HT-29 of 18 nM.
